Assay results reported in US20250230226A1, “PLXDC1/PLXDC2 ACTIVATORS AND THEIR USE IN THE TREATMENT OF BLOOD VESSEL DISORDERS” (THE REGENTS OF THE UNIVERSITY OF CALIFORNIA, priority 2019, published 2025).

Legend:
PLXDC1 = biological target: T1, PLXDC1 (Homo sapiens, UniProt Q8IUK5); assay: Gfi1b promotor luciferase receptor activation assay, PLXDC1-expressing cells (FIG. 18A, 19); assay type: cell-based; settings: compound treatments 1 day; basal activity defined as 1
T1 construct: expressed in transfected cells
T1 sequence (Q8IUK5 19-500): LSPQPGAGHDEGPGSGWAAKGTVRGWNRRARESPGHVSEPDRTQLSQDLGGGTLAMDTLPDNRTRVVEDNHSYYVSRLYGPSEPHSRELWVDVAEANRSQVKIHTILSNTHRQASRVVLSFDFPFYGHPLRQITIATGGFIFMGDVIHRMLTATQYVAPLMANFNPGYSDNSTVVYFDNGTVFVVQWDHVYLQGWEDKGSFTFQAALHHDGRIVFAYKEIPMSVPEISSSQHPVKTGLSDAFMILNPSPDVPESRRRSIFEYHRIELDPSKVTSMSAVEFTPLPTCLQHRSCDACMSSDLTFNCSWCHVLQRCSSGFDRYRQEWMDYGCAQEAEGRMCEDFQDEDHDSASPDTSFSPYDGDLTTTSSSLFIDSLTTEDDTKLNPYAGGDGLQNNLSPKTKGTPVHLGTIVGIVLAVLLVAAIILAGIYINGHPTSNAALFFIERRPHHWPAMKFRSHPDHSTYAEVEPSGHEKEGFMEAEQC
Text: (§1) FIG. 18A-B show activation of PLXDC1 and PLXDC2 by small molecules. […] All compound treatments were done for 1 day. Basal promotor activity of the PLXDC1-expressing cells is defined as 1.
Basal promotor activity of the PLXDC1-expressing cells is defined as 1. The basal activity of PLXDC1-expressing cells (Control) are higher than cells without PLXDC1, consistent promotor activation by the ectopic expression of the receptor without ligands.
(§2) By linking its promotor to a luciferase reporter gene, this example developed a PLXDC1 receptor activation assay.

pathogenic blood vessels = assay: Ischemia-induced retinopathy in vivo (FIG. 22); parameters: species or system mice; settings: subcutaneous injection during return to room air; n=10 retinas
Text: A. Upper graph: Schematic diagram of the experimental design for ischemia-induced retinopathy. The high oxygen environment caused blood vessel loss (vaso-obliteration). In room air, loss of vessels triggered abnormal angiogenesis that generated pathogenic blood vessels on the top of the retina (marked in yellow in D). Treatment was applied during the return to room air by subcutaneous injection. Lower graph: quantitation of healthy blood vessels, vaso-obliteration and pathogenic blood vessels between the control (n=10) and treated retinas (n=10). […] B. Representative images of flat-mounted control retinas (upper two images) and retinas from compound treated mice (lower two images). Red signal is blood vessel marker. C. The same retinas in B with vaso-obliteration areas marked in white color. These images illustrate that compound-treated retinas went through vaso-obliteration like the control retinas. D. The same retinas in B with pathogenic blood vessels marked in yellow color.
FIG. 22A includes a schematic diagram of the experimental design for ischemia-induced retinopathy. The high oxygen environment caused blood vessel loss (vaso-obliteration). In room air, loss of vessels triggered abnormal angiogenesis that generated pathogenic blood vessels on the top of the retina (marked in yellow in FIG. 22D). Treatment was applied during the return to room air by subcutaneous injection. […]

PLXDC2 = biological target: T2, PLXDC2 (Homo sapiens, UniProt Q6UX71); assay: Gfi1b promotor luciferase receptor activation assay, PLXDC2-expressing cells (FIG. 18B); assay type: cell-based; settings: compound treatments 1 day
T2 construct: host or cells: PLXDC2-expressing cells
Text: as §1, §2

T2 sequence (Q6UX71 31-529): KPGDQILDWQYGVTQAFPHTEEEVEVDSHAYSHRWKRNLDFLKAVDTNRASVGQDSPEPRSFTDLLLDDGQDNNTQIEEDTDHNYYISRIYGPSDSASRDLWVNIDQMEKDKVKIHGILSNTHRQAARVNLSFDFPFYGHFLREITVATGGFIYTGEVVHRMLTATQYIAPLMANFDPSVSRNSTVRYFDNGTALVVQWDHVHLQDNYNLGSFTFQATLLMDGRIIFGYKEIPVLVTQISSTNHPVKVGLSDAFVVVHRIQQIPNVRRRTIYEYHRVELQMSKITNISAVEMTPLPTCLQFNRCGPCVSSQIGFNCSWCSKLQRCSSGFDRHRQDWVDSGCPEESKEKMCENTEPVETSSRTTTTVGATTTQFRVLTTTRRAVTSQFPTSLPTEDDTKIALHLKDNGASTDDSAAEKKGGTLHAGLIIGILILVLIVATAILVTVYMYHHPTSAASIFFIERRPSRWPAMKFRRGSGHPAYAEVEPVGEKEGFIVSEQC

## CCCCCCCCCCCCCCOc1ccc(S(=O)(=O)c2cnc3ccc([S+](C)[O-])cc3c2N2CCC(N3CCC(N4CCN(C)CC4)CC3)CC2)cc1 (stereo not shown) [Compound 346]
PLXDC1
  Gfi1b promotor activity in PLXDC1-expressing cells: highly activated the promotor activity
Pathogenic blood vessels
  Healthy blood vessels: improving the amount of healthy blood vessels
  Pathogenic blood vessels: highly suppressed pathogenic blood vessels
PLXDC2
  Gfi1b promotor activity in PLXDC2-expressing cells: activated the promotor activity in PLXDC2-expressing cells
